Here are results for 26 molecules from patent publication US20240317721A1, “PYRAZOLYL DERIVATIVES AS INHIBITORS OF THE KRAS MUTANT PROTEIN” (NOVARTIS AG, priority 2021, published 2024).

This test has as its target KRasG12C (M1-K169, biotinylated on the N-terminus) (Homo sapiens (Human), UniProt P01116, G12C). The test is described as follows: Covalent competition assay: scintillation proximity assay (SPA) quantifying covalent modification of KRASG12C. In kind it is binding. The following applies: competition with radiolabeled covalent probe (Compound B/Compound A), 2 hours incubation, 10 nM KRasG12C. Summed up:
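Scintillation proximity readout after streptavidin bead capture (30 min) of biotinylated KRasG12C(M1-K169):GDP, 10 nM final, which was covalently labelled over 2 h by 25 nM radio-probe plus 475 nM cold probe unless blocked by compound.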
On the technique in general: Scintillation proximity formats need no separation of bound from free tracer.
For orientation: IC50 means the concentration at which inhibition is half-maximal. On to `C=CC(=O)N1CC2(CC(n3nc(N4CCC5C(=O)N(C)CC5C4)c(-c4c(Cl)c(C)cc5[nH]ncc45)c3C)C2)C1` (stereo not drawn) [Example 16, (3aS*,7aS*)-5-(1-(2-acryloyl-2-azaspiro[3.3]heptan-6-yl)-4-(5-chloro-6-methyl-1H-indazol-4-yl)-5-methyl-1H-pyrazol-3-yl)-2-methyloctahydro-1H-pyrrolo[3,4-c]pyridin-1-one], for which the IC50 is 1000 nM.
Consider `C=CC(=O)N1CC2(CC(n3nc(N4CC[C@@H](CN5CCOC6CS(=O)(=O)CC65)CC4(C)C)c(-c4c(Cl)c(Cl)cc5[nH]ncc45)c3C)C2)C1` (single isomer, unassigned) [Example 265a, 1-(6-(4-(5,6-dichloro-1H-indazol-4-yl)-3-((R)-4-(((4aR*,7aS*)-6,6-dioxidohexahydro-4H-thieno[3,4-b][1,4]oxazin-4-yl)methyl)-2,2-dimethylpiperidin-1-yl)-5-methyl-1H-pyrazol-1-yl)-2-azaspiro[3.3]heptan-2-yl)prop-2-en-1-one], for which the half-maximal inhibitory concentration (IC50) was found to be 2900 nM.
`C=CC(=O)N1CC2(CC(n3nc(N4CCN(C5COCCOC5)C[C@]4(C)CC)c(-c4c(Cl)c(C)cc5[nH]ncc45)c3C)C2)C1` (single isomer, unassigned) [Example 159a]: the IC50 was 715 nM.
For the molecule `CC[C@@]1(C)CN(C[C@@H]2COCCO2)CCN1c1nn(C2CC3(C2)CN(C(=O)/C=C/COC)C3)c(C)c1-c1c(Cl)c(C)cc2[nH]ncc12` (single isomer, unassigned) [Example 120a], the IC50 is greater than 5000 nM.
As for `C=CC(=O)N1CC2(CC(n3nc(N4CCN(C5COC5)CC45CCC5)c(-c4c(C)c(Cl)cc5[nH]ncc45)c3C)C2)C1` (single isomer, unassigned) [Example 79a, 1-(6-(4-(6-chloro-5-methyl-1H-indazol-4-yl)-5-methyl-3-(8-(oxetan-3-yl)-5,8-diazaspiro[3.5]nonan-5-yl)-1H-pyrazol-1-yl)-2-azaspiro[3.3]heptan-2-yl)prop-2-en-1-one], the figure is greater than 5000 nM; as for `C=CC(=O)N1CC2(CC(n3nc(N4CC[C@@H](CN5CC(O)C(OC)C5)CC4(C)C)c(-c4c(Cl)c(Cl)cc5[nH]ncc45)c3C)C2)C1` (single isomer, unassigned) [Example 274b, 1-(6-(4-(5,6-dichloro-1H-indazol-4-yl)-3-((R)-4-(((3S*,4S*)-3-hydroxy-4-methoxypyrrolidin-1-yl)methyl)-2,2-dimethylpiperidin-1-yl)-5-methyl-1H-pyrazol-1-yl)-2-azaspiro[3.3]heptan-2-yl)prop-2-en-1-one], 8 nM.
For the molecule `C=CC(=O)N1CC2(CC(n3nc(N4CC(c5cccnc5)C4)c(-c4c(Cl)c(C)cc5[nH]ncc45)c3C)C2)C1` (single isomer, unassigned) [Example 37b, 1-(6-(4-(5-chloro-6-methyl-1H-indazol-4-yl)-5-methyl-3-(3-(pyridin-3-yl)azetidin-1-yl)-1H-pyrazol-1-yl)-2-azaspiro[3.3]heptan-2-yl)prop-2-en-1-one], the IC50 came out at 2100 nM.
`C=CC(=O)N1CC2(CC(n3nc(N4CCCC45CCOCC5)c(-c4c(Cl)c(C)cc5[nH]ncc45)c3C)C2)C1` [Example 60, 1-(6-(4-(5-chloro-6-methyl-1H-indazol-4-yl)-5-methyl-3-(8-oxa-1-azaspiro[4.5]decan-1-yl)-1H-pyrazol-1-yl)-2-azaspiro[3.3]heptan-2-yl)prop-2-en-1-one]: the IC50 turned out to be 4900 nM.
As for `Cc1cc2[nH]ncc2c(-c2c(N3CCN(C4COC4)CC34CCC4)nn(C3CC4(C3)CN(C(=O)/C=C/CF)C4)c2C)c1Cl` (single isomer, unassigned) [Example 113a, (E)-1-(6-(4-(5-chloro-6-methyl-1H-indazol-4-yl)-5-methyl-3-(8-(oxetan-3-yl)-5,8-diazaspiro[3.5]nonan-5-yl)-1H-pyrazol-1-yl)-2-azaspiro[3.3]heptan-2-yl)-4-fluorobut-2-en-1-one], the figure is greater than 5000 nM; as for `C=CC(=O)N1CC2(CC(n3nc(N4CCn5nccc5C4C)c(-c4c(Cl)c(C)cc5[nH]ncc45)c3C)C2)C1` (single isomer, unassigned) [Example 42b, 1-(6-(4-(5-chloro-6-methyl-1H-indazol-4-yl)-5-methyl-3-(4-methyl-6,7-dihydropyrazolo[1,5-a]pyrazin-5(4H)-yl)-1H-pyrazol-1-yl)-2-azaspiro[3.3]heptan-2-yl)prop-2-en-1-one], 186 nM; as for `C=CC(=O)N1CC2(CC(n3nc(N4CCN(C)CC45CCC5)c(-c4c(Cl)c(C)cc5[nH]ncc45)c3C)C2)C1` (single isomer, unassigned) [Example 55a, 1-(6-(4-(5-chloro-6-methyl-1H-indazol-4-yl)-5-methyl-3-(8-methyl-5,8-diazaspiro[3.5]nonan-5-yl)-1H-pyrazol-1-yl)-2-azaspiro[3.3]heptan-2-yl)prop-2-en-1-one], 24700 nM.
As for `C=CC(=O)N1CC2(CC(n3nc(N4CCN(CC(C)(C)O)CC45CCC5)c(-c4c(Cl)c(C)cc5[nH]nc(N)c45)c3C)C2)C1` (single isomer, unassigned) [Example 117a, 1-(6-(4-(3-amino-5-chloro-6-methyl-1H-indazol-4-yl)-3-(8-(2-hydroxy-2-methylpropyl)-5,8-diazaspiro[3.5]nonan-5-yl)-5-methyl-1H-pyrazol-1-yl)-2-azaspiro[3.3]heptan-2-yl)prop-2-en-1-one], the IC50 was found to be 9 nM.
`C=CC(=O)N1CC2(CC(n3nc(N4CC[C@@H](CN5CCN(C6COC6)C[C@@H]5COC)CC4(C)C)c(-c4c(Cl)c(Cl)cc5[nH]ncc45)c3C)C2)C1` (single isomer, unassigned) [Example 320a]: the IC50 came to 3300 nM.
Regarding `C=CC(=O)N1CC2(CC(n3nc(N4CCN(C5CCOCC5)C[C@@]4(CC)C(F)F)c(-c4c(Cl)c(C)cc5[nH]ncc45)c3C)C2)C1` (single isomer, unassigned) [Example 156a], the IC50 was greater than 5000 nM.
Turning to `C=CC(=O)N1CC2(CC(n3nc(N4CC[C@@H](CN5CCN(C(=O)NC)CC5)CC4(C)C)c(-c4c(Cl)c(Cl)cc5[nH]ncc45)c3C)C2)C1` (single isomer, unassigned) [Example 289b], the IC50 was 10 nM.
On to `C=CC(=O)N1CC2(CC(n3nc(N4CC[C@@H](CN5CCN6C(=O)N(C)CC6C5)CC4(C)C)c(-c4c(Cl)c(Cl)cc5[nH]ncc45)c3C)C2)C1` (single isomer, unassigned) [Example 264b], for which the IC50 was found to be 33 nM.
Consider `C=CC(=O)N1CC2(CC(n3nc(N4CC[C@@H](CN5CCC6COCC65)CC4(C)C)c(-c4c(C)c(Cl)cc5[nH]ncc45)c3C)C2)C1` (single isomer, unassigned) [Example 306b, 1-(6-(4-(6-chloro-5-methyl-1H-indazol-4-yl)-3-((R)-4-(((3aR*,6aR*)-hexahydro-1H-furo[3,4-b]pyrrol-1-yl)methyl)-2,2-dimethylpiperidin-1-yl)-5-methyl-1H-pyrazol-1-yl)-2-azaspiro[3.3]heptan-2-yl)prop-2-en-1-one], for which the IC50 amounted to 5 nM.
As for `C=CC(=O)N1CC2(CC(n3nc(N4CCN(CCOC)CC45CCC5)c(-c4c(Cl)c(C)cc5[nH]ncc45)c3C)C2)C1` (single isomer, unassigned) [Example 71a, 1-(6-(4-(5-chloro-6-methyl-1H-indazol-4-yl)-3-(8-(2-methoxyethyl)-5,8-diazaspiro[3.5]nonan-5-yl)-5-methyl-1H-pyrazol-1-yl)-2-azaspiro[3.3]heptan-2-yl)prop-2-en-1-one], the IC50 came to 1200 nM.
For `C=CC(=O)N1CC2(CC(n3nc(N4CCc5nn(C)c(=O)cc5C4)c(-c4c(Cl)c(C)cc5[nH]ncc45)c3C)C2)C1` (single isomer, unassigned) [Example 40a, 6-(1-(2-acryloyl-2-azaspiro[3.3]heptan-6-yl)-4-(5-chloro-6-methyl-1H-indazol-4-yl)-5-methyl-1H-pyrazol-3-yl)-2-methyl-5,6,7,8-tetrahydropyrido[4,3-c]pyridazin-3(2H)-one] the value was greater than 50000 nM; for `C=CC(=O)N1CC2(CC(n3nc(N4CCC5C(CC(=O)N5C)C4)c(-c4c(Cl)c(C)cc5[nH]ncc45)c3C)C2)C1` (single isomer, unassigned) [Example 38a, 5-(1-(2-acryloyl-2-azaspiro[3.3]heptan-6-yl)-4-(5-chloro-6-methyl-1H-indazol-4-yl)-5-methyl-1H-pyrazol-3-yl)-1-methyloctahydro-2H-pyrrolo[3,2-c]pyridin-2-one], greater than 5000 nM.
On to `C=CC(=O)N1CC2(CC(n3nc(N4CC[C@@H](CN5CCN6C(=O)OCC6C5)CC4(C)C)c(-c4c(Cl)c(Cl)cc5[nH]ncc45)c3C)C2)C1` (single isomer, unassigned) [Example 312b], for which the IC50 was determined as 9 nM.
For `C=CC(=O)N1CC2(CC(n3nc(N4CC[C@@H](CN5CC6(O)CC5C6)CC4(C)C)c(-c4c(Cl)c(Cl)cc5[nH]ncc45)c3C)C2)C1` (single isomer, unassigned) [Example 293b] the value was 10 nM.
On to `C=CC(=O)N1CC2(CC(n3nc(N4CC[C@@H](CN5CCN6C(=O)N(C)CC6C5)CC4(C)C)c(-c4c(Cl)c(Cl)cc5[nH]ncc45)c3C)C2)C1` (single isomer, unassigned) [Example 263b], for which the IC50 worked out at 8 nM.
`C=CC(=O)N1CC2(CC(n3nc(N4CCN(C5CCOCC5)C[C@]4(C)CCOC)c(-c4c(Cl)c(C)cc5[nH]ncc45)c3C)C2)C1` (single isomer, unassigned) [Example 87a]: the IC50 came to 13 nM.
Regarding `C=CC(=O)N1CC2(CC(n3nc(N4CCN(CC5COCCOC5)C[C@]4(C)CC)c(-c4c(Cl)c(C)cc5[nH]ncc45)c3C)C2)C1` (single isomer, unassigned) [Example 186a], the IC50 came to 1500 nM.
As to `C=CC(=O)N1CC2(CC(n3nc(N4CCC(CN5CCS(=O)(=O)CC5)CC4(C)C)c(-c4c(Cl)c(Cl)cc5[nH]ncc45)c3C)C2)C1` (single isomer, unassigned) [Example 236a, 1-(6-(4-(5,6-dichloro-1H-indazol-4-yl)-3-(4-((1,1-dioxidothiomorpholino)methyl)-2,2-dimethylpiperidin-1-yl)-5-methyl-1H-pyrazol-1-yl)-2-azaspiro[3.3]heptan-2-yl)prop-2-en-1-one], the IC50 stood at 168 nM.
